Consider 6 molecules from ChEMBL document CHEMBL1201862, “PubChem BioAssay data set” (2004).

Some test systems named below: SW-620; M19-MEL; ACHN; LXFL 529; Malme-3M; NCI-H522; OVCAR-4; DLD-1; HCT-15; CCRF-CEM; KM12; HOP-18; SR; TK-10; OVCAR-5; MDA-N; BT-549; PC-3; DU-145.
What all share (experiment): DTP human tumour cell line panel, 48 h

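Briefly, cells in 96-well plates were exposed to five compound concentrations for 48 h, and endpoints were estimated by linear interpolation. GI50 = concentration required for 50% inhibition of growth.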 Calls of active or inactive are those of the source. No stated cut-off is given here; in the data, active = GI50 up to about 1.1 µM and inactive = higher.

In general, GI50 refers to the concentration at which growth is held to half of that of the control. `CCOC(=O)NC(=O)c1cn(CCOC(=O)NCCCCCCNC(=O)OCCn2cc(C(=O)NC(=O)OCC)c(=O)[nH]c2=O)c(=O)[nH]c1=O`: the GI50 in the experiment with SW-620, in the experiment on M19-MEL, with ACHN, in the experiment on LXFL 529, in the experiment with Malme-3M and in the experiment on NCI-H522 was > 100 µM (inactive) each time. Also, the GI50 is > 100 µM (inactive) in the experiment on OVCAR-4; > 100 µM (inactive) in the experiment on DLD-1; > 100 µM with HCT-15; > 100 µM (inactive) in the experiment on CCRF-CEM; > 100 µM (inactive) in the experiment on KM12; > 100 µM (inactive) with HOP-18.
Turning to `CC12N=NNC1C(=O)NC2=O` (stereo not given), the GI50 in the experiment with SW-620, in the experiment on M19-MEL, in the experiment with ACHN, in the experiment on LXFL 529, with SR and in the experiment with NCI-H522 was > 100 µM (inactive) each time. Also, the GI50 was > 100 µM (inactive) in the experiment on TK-10; > 100 µM (inactive) in the experiment on OVCAR-4; > 100 µM (inactive) in the experiment on DLD-1; > 100 µM in the experiment on HCT-15; > 100 µM (inactive) in the experiment on CCRF-CEM; > 100 µM (inactive) in the experiment on KM12.
Take `CCCCCCC(=O)C/C(=N/NC(N)=S)C(=O)NC1C2CC3CC(C2)CC1C3` (stereo not given): the GI50 in the experiment on SW-620, in the experiment with M19-MEL, with ACHN, in the experiment on LXFL 529, in the experiment with Malme-3M and in the experiment with OVCAR-5 was > 100 µM (inactive) each time. Besides, the GI50 in the experiment with TK-10, in the experiment on OVCAR-4, in the experiment on DLD-1, in the experiment with CCRF-CEM and with KM12 was > 100 µM (inactive) each time.
Take `C[C@@]1(CO)[C@H](O)CC[C@@]2(C)[C@H]1CC[C@H]1C[C@@H]3C[C@@]12CC[C@@]3(O)COC(=O)CN`: the GI50 is 16.9 µM (inactive) in the experiment on MDA-N; 42.3 µM (inactive) in the experiment with BT-549; 0.098 µM (active) in the experiment on ACHN; > 100 µM (inactive) in the experiment with LXFL 529; 21.3 µM (inactive) in the experiment on PC-3; 0.811 µM (active) in the experiment on SR. The GI50 was 2.67 µM (inactive) in the experiment on DU-145; 56.5 µM (inactive) in the experiment on TK-10; 49.8 µM (inactive) with OVCAR-4; 0.67 µM (active) with CCRF-CEM; 28 µM (inactive) in the experiment on KM12; > 76 µM (inactive) in the experiment with HOP-18.
As for `CN1C(=O)C2C=CC1C1CCC2N(C)C1=O` (stereo not given), the GI50 in the experiment with SW-620, in the experiment with M19-MEL, in the experiment with LXFL 529, in the experiment with Malme-3M, in the experiment with OVCAR-5 and in the experiment with NCI-H522 was > 100 µM (inactive) in each case. Besides, the GI50 in the experiment on TK-10 was > 100 µM (inactive); with OVCAR-4 it was > 100 µM (inactive); in the experiment with DLD-1 it was > 100 µM (inactive); in the experiment on HCT-15 it was > 100 µM; in the experiment with CCRF-CEM, > 100 µM (inactive); with KM12 it was > 100 µM (inactive). Moreover, the GI50 in the experiment on HOP-18 is > 100 µM (inactive).
With `CC(C)[C@@H]1ON1C(C)c1ccccc1` (stereo not given in full), the GI50 in the experiment with MDA-N, with SW-620, in the experiment with BT-549, in the experiment on ACHN, in the experiment with PC-3 and in the experiment on Malme-3M was > 100 µM (inactive) each time. Moreover, the GI50 in the experiment with OVCAR-5, in the experiment with SR, with NCI-H522, in the experiment on DU-145, with TK-10 and in the experiment with OVCAR-4 was > 100 µM (inactive) throughout. Besides, the GI50 with HCT-15 was 79.6 µM; in the experiment on CCRF-CEM, > 100 µM (inactive); with KM12, > 100 µM (inactive).
